Results: patent publication US20160130278A1 (TAISHO PHARMACEUTICAL CO., LTD, priority 2013, published 2016)

Biological target: T1, human type 1 glycine transporter (GlyT1) (Homo sapiens, UniProt P48067)
T1 construct: T98G cells (glioma cells) expressing human type 1 glycine transporter (GlyT1) were used
T1 sequence (P48067 1-706): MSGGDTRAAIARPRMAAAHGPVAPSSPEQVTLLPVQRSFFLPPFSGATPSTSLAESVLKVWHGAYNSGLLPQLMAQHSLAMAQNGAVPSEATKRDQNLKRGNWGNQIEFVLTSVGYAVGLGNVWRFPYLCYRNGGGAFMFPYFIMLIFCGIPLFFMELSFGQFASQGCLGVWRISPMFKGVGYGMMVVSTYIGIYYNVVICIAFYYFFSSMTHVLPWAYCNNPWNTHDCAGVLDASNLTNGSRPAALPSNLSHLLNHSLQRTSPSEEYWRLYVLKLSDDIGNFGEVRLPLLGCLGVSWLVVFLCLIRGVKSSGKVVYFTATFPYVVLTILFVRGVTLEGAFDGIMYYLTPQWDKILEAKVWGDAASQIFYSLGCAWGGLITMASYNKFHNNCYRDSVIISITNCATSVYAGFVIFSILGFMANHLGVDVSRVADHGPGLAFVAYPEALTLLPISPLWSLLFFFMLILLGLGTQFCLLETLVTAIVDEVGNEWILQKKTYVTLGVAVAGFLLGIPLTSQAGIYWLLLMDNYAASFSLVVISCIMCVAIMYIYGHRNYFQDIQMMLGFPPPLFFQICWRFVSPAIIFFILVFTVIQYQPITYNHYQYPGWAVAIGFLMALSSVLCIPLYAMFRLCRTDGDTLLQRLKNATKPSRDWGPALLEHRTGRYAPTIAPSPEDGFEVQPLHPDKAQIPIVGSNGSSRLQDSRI
Assay: Glycine uptake inhibition experiment ([3H]glycine uptake)
Assay type: cell-based
How it was run: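 T98G glioma cells expressing human GlyT1 were pretreated 10 min with compound in HEPES buffer pH 7.4 (0.2% BSA), then incubated with compound plus 250 nM final [3H]glycine for 15 min at room temperature. Intracellular radioactivity was counted after NaOH lysis; 10 μM ALX5407 defined non-specific uptake. IC50 came from 10^−9–10^−5 M curves.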

| SMILES | IC50 (GlyT1) [nM] | IC50 (human GlyT1) [nM] |
| --- | --- | --- |
| CC(C)n1cc(-c2cccc(C(NC(=O)c3nccc(C(F)(F)F)c3Cl)C3(O)CCC(F)(F)CC3)c2)cn1 (single isomer, unassigned) [Compound 134, 3-chloro-N-[(4,4-difluoro-1-hydroxycyclohexyl){3-[1-(propan-2-yl)-1H-pyrazol-4-yl]phenyl}methyl]-4-(trifluoromethyl)pyridine-2-carboxamide] | 31 | – |
| O=C(NC(c1cccc(OC(F)(F)F)c1)C1(O)CCCC1)c1nccc(C(F)(F)F)c1Cl (centres unmarked) [Compound 84, 3-chloro-N-{(1-hydroxycyclopentyl)[3-(trifluoromethoxy)phenyl]methyl}-4-(trifluoromethyl)pyridine-2-carboxamide] | 2600 | – |
| O=C(NC(c1cccc(Cl)c1)C1(O)CCCC1)c1nccc(C(F)(F)F)c1Cl (centres unmarked) [Compound 45, 3-chloro-N-[(3-chlorophenyl)(1-hydroxycyclopentyl)methyl]-4-(trifluoromethyl)pyridine-2-carboxamide] | 90 | – |
| O=C(NC(c1cccc(F)n1)[C@]1(O)CC[C@@H](F)CC1)c1nccc(C(F)(F)F)c1Cl (single isomer, unassigned) [Compound 329, 3-chloro-N-[(cis-4-fluoro-1-hydroxycyclohexyl)(6-fluoropyridin-2-yl)methyl]-4-(trifluoromethyl)pyridine-2-carboxamide] | 140 | – |
| O=C(NC(c1cccc(Cl)n1)C1(O)CCC(F)(F)CC1)c1nccc(C(F)(F)F)c1Cl (single isomer, unassigned) [Compound 311, 3-chloro-N-[(6-chloropyridin-2-yl)(4,4-difluoro-1-hydroxycyclohexyl)methyl]-4-(trifluoromethyl)pyridine-2-carboxamide] | 77 | – |
| O=C(NC(c1cccc(F)c1Cl)[C@]1(O)CC[C@@H](F)CC1)c1ccccc1Cl (single isomer, unassigned) [Compound 247, 2-chloro-N-[(2-chloro-3-fluorophenyl)(cis-4-fluoro-1-hydroxycyclohexyl)methyl]benzamide] | 1000 | – |
| O=C(NC(c1cccc(Cl)n1)C1(O)CCC(F)(F)CC1)c1nccc2ccccc12 (single isomer, unassigned) [Compound 355, N-[(6-chloropyridin-2-yl)(4,4-difluoro-1-hydroxycyclohexyl)methyl]isoquinoline-1-carboxamide] | 130 | – |
| O=C(NC(c1cccc(Cl)c1Cl)C1(O)CCC(F)(F)CC1)c1nccc(C(F)(F)F)c1Cl (centres unmarked) [Compound 131, 3-chloro-N-[(2,3-dichlorophenyl)(4,4-difluoro-1-hydroxycyclohexyl)methyl]-4-(trifluoromethyl)pyridine-2-carboxamide] | 160 | – |
| N#Cc1cccc([C@H](NC(=O)c2nccc(C(F)(F)F)c2Cl)C2(O)CCCC2)c1 [Compound 37, 3-chloro-N-[(S)-(3-cyanophenyl)(1-hydroxycyclopentyl)methyl]-4-(trifluoromethyl)pyridine-2-carboxamide] | 260 | – |
| O=C(NC(c1ccccc1Cl)C1(O)CCC(F)(F)CC1)c1ccc(C(F)(F)F)nc1-n1nccn1 (single isomer, unassigned) [Compound 408, N-[(2-chlorophenyl)(4,4-difluoro-1-hydroxycyclohexyl)methyl]-2-(2H-1,2,3-triazol-2-yl)-6-(trifluoromethyl)pyridine-3-carboxamide] | – | 2200 |
| O=C(NC(c1cccc(-c2ncccn2)c1)C1(O)CCC(F)(F)CC1)c1nccc(C(F)(F)F)c1Cl (centres unmarked) [Compound 160, 3-chloro-N-{(4,4-difluoro-1-hydroxycyclohexyl)[3-(pyrimidin-2-yl)phenyl]methyl}-4-(trifluoromethyl)pyridine-2-carboxamide] | 880 | – |
| O=C(NC(c1ncccc1Cl)C1(O)CCC(F)(F)CC1)c1nccc(C(F)(F)F)c1Cl (single isomer, unassigned) [Compound 319, 3-chloro-N-[(3-chloropyridin-2-yl)(4,4-difluoro-1-hydroxycyclohexyl)methyl]-4-(trifluoromethyl)pyridine-2-carboxamide] | 1800 | – |
| O=C(N[C@@H](c1cccc(Br)c1)C1(O)CCCC1)c1nccc(C(F)(F)F)c1-n1nccn1 [Compound 70, N-[(S)-(3-bromophenyl)(1-hydroxycyclopentyl)methyl]-3-(2H-1,2,3-triazol-2-yl)-4-(trifluoromethyl)pyridine-2-carboxamide] | 1200 | – |
| O=C(NC(c1ccccc1)C1(O)CCCC1)c1nccc(C(F)(F)F)c1Cl (centres unmarked) [Compound 12, 3-chloro-N-[(1-hydroxycyclopentyl)(phenyl)methyl]-4-(trifluoromethyl)pyridine-2-carboxamide] | 480 | – |

The remaining lines, values ahead:

| IC50 (GlyT1) [nM] | IC50 (human GlyT1) [nM] | SMILES |
| --- | --- | --- |
| 72 | – | O=C(NC(c1cccc(-c2cnn(CC(F)(F)F)c2)c1)C1(O)CCC(F)(F)CC1)c1nccc(C(F)(F)F)c1Cl (single isomer, unassigned) [Compound 135, 3-chloro-N-[(4,4-difluoro-1-hydroxycyclohexyl){3-[1-(2,2,2-trifluoroethyl)-1H-pyrazol-4-yl]phenyl}methyl]-4-(trifluoromethyl)pyridine-2-carboxamide] |
| 250 | – | O=C(NC(c1cccc(Cl)n1)C1(O)CCC(F)(F)CC1)c1ccc(C(F)(F)F)nc1Cl (single isomer, unassigned) [Compound 356, 2-chloro-N-[(6-chloropyridin-2-yl)(4,4-difluoro-1-hydroxycyclohexyl)methyl]-6-(trifluoromethyl)pyridine-3-carboxamide] |
| 53 | – | O=C(NC(c1ccccc1Cl)[C@]1(O)CC[C@@H](F)CC1)c1nccc(C(F)(F)F)c1Cl (single isomer, unassigned) [Compound 197, 3-chloro-N-[(2-chlorophenyl)(cis-4-fluoro-1-hydroxycyclohexyl)methyl]-4-(trifluoromethyl)pyridine-2-carboxamide] |
| 100 | – | CS(=O)(=O)c1cc(C(F)(F)F)ccc1C(=O)NC(c1cccc(F)c1Cl)[C@]1(O)CC[C@@H](F)CC1 (single isomer, unassigned) [Compound 373, N-[(2-chloro-3-fluorophenyl)(cis-4-fluoro-1-hydroxycyclohexyl)methyl]-2-(methylsulfonyl)-4-(trifluoromethyl)benzamide] |
| 240 | – | O=C(NC(c1cccc(Cl)n1)[C@]1(O)CC[C@@H](F)CC1)c1ccc(C(F)(F)F)cc1Cl (single isomer, unassigned) [Compound 363, 2-chloro-N-[(6-chloropyridin-2-yl)(cis-4-fluoro-1-hydroxycyclohexyl)methyl]-4-(trifluoromethyl)benzamide] |
| 160 | – | O=C(NC(c1cccc(-n2cccn2)c1)C1(O)CCCC1)c1nccc(C(F)(F)F)c1Cl (centres unmarked) [Compound 80, 3-chloro-N-{(1-hydroxycyclopentyl)[3-(1H-pyrazol-1-yl)phenyl]methyl}-4-(trifluoromethyl)pyridine-2-carboxamide] |
| 850 | – | O=C(NC(c1cccnc1Cl)C1(O)CCC(F)(F)CC1)c1ccnc(C(F)(F)F)c1Cl (single isomer, unassigned) [Compound 341, 3-chloro-N-[(2-chloropyridin-3-yl)(4,4-difluoro-1-hydroxycyclohexyl)methyl]-2-(trifluoromethyl)pyridine-4-carboxamide] |
| 1300 | – | O=C(NC(c1cccc(F)c1Cl)[C@]1(O)CC[C@@H](F)CC1)c1ccc(F)cc1Cl (single isomer, unassigned) [Compound 307, 2-chloro-N-[(2-chloro-3-fluorophenyl)(cis-4-fluoro-1-hydroxycyclohexyl)methyl]-4-fluorobenzamide] |
| 120 | – | O=C(NC(c1cccc(F)c1Cl)[C@]1(O)CC[C@@H](F)CC1)c1cc(C(F)(F)F)ccc1Cl (single isomer, unassigned) [Compound 292, 2-chloro-N-[(2-chloro-3-fluorophenyl)(cis-4-fluoro-1-hydroxycyclohexyl)methyl]-5-(trifluoromethyl)benzamide] |
| 8800 | – | CCn1cc(-c2cccc(C(NC(=O)c3cccc(OC)c3Cl)C3(O)CCC(F)(F)CC3)c2)cn1 (centres unmarked) [Compound 207, 2-chloro-N-{(4,4-difluoro-1-hydroxycyclohexyl)[3-(1-ethyl-1H-pyrazol-4-yl)phenyl]methyl}-3-methoxybenzamide] |
| 7400 | – | Cc1nc2ccccn2c1C(=O)NC(c1cccc(F)c1Cl)[C@]1(O)CC[C@@H](F)CC1 (single isomer, unassigned) [Compound 261, N-[(2-chloro-3-fluorophenyl)(cis-4-fluoro-1-hydroxycyclohexyl)methyl]-2-methylimidazo[1,2-a]pyridine-3-carboxamide] |
| 170 | – | O=C(NC(c1cc(F)ccc1Cl)[C@]1(O)CC[C@@H](F)CC1)c1nccc(C(F)(F)F)c1Cl (single isomer, unassigned) [Compound 374, 3-chloro-N-[(2-chloro-5-fluorophenyl)(cis-4-fluoro-1-hydroxycyclohexyl)methyl]-4-(trifluoromethyl)pyridine-2-carboxamide] |
